Measurements reported in US9156831B2, “Chemical compounds” (ASTRAZENECA AB, priority 2013, dated 2015).

Assays:
Assay in all cases: Cell proliferation assay (MTS)
Assay type in all cases: cell-based, human
PNT1A = test system: PNT1A
Protocol: (§1) The sensitivity of a panel of human cancer cell lines to the effects of compounds was determined in a standard proliferation assay.
(§2) Cells were plated in 96 well plates at densities of 1000-6000 cells per well in RPMI media containing 10% FBS. After incubation at 37° C. for 16 hours, various concentrations of compound were added to the assay plates. After incubation for an additional 72 h, the viable cells were determined by the addition of MTS reagent (Promega #3582) to each well for 2 h. MTS is a tetrazolium salt that is bioreduced by metabolically active cells in the presence of an electron coupling reagent to formazan. The formazan product was then quantitated by absorbance at 490 nm, as an indicator of the relative number of live cells. In order to determine the GI50 (concentration at which growth of cells was inhibited by 50%) the relative number of cells present at the time of drug addition was determined by comparison with the MTS readout before the drug was added, and this value was subtracted from the 72 hr value of untreated cells as a measure of cell growth during the assay.

QGY7703 = test system: QGY7703
Protocol: as §1, §2

NOMO1 = test system: NOMO1
Protocol: as §1, §2

SNU739 = test system: SNU739
Protocol: The sensitivity of a panel of human cancer cell lines to the effects of compounds was determined in a standard proliferation assay. Cell lines were sourced through the AstraZeneca Cell Bank.
as §2

H322 = test system: H322
Protocol: as §1
(§3) Cells were plated in 96 well plates at densities of 1000-6000 cells per well in RPMI media containing 10% FBS. After incubation at 37° C. for 16 hours, various concentrations of compound were added to the assay plates. After incubation for an additional 72 h, the viable cells were determined by the addition of MTS reagent (Promega #3582) to each well for 2 h. […] The formazan product was then quantitated by absorbance at 490 nm, as an indicator of the relative number of live cells. In order to determine the GI50 (concentration at which growth of cells was inhibited by 50%) the relative number of cells present at the time of drug addition was determined by comparison with the MTS readout before the drug was added, and this value was subtracted from the 72 hr value of untreated cells as a measure of cell growth during the assay.

JIMT1 = test system: JIMT1
Protocol: as §1, §2

OE19 = test system: OE19
Protocol: as §1, §3

H358 = test system: H358
Protocol: as §1, §3

SNU16 = test system: SNU16
Protocol: as §1, §2

1A6 = test system: 1A6
Protocol: as §1, §2

RS411 = test system: RS411
Protocol: as §1, §2

MDAMB436 = test system: MDAMB436
Protocol: as §1, §2

SKBR3 = test system: SKBR3
Protocol: as §1, §2

## CCn1nc(C2CCN(C(=O)CCO)CC2)nc1-c1cnc(N)c(-c2nnc(C(C)(C)C)o2)n1 [Example 3, 1-(4-(5-(5-amino-6-(5-tert-butyl-1,3,4-oxadiazol-2-yl)pyrazin-2-yl)-1-ethyl-1H-1,2,4-triazol-3-yl)piperidin-1-yl)-3-hydroxypropan-1-one]
PNT1A
  Category: Resistant (resistant (GI50>1.0 μM))
PNT1A; Homo sapiens, Prostate, PIK3CA WT
  GI50: 2.17 µM
QGY7703
  Category: Resistant (resistant (GI50>1.0 μM))
QGY7703; Homo sapiens, QGY-7703, Liver, PIK3CA WT
  GI50: 11.1 µM
NOMO1
  Category: Resistant (resistant (GI50>1.0 μM))
NOMO1; Homo sapiens, NOMO-1, Blood/lymph, PIK3CA WT
  GI50: 2.17 µM
SNU739
  Category: Resistant (resistant (GI50>1.0 μM))
SNU739; Homo sapiens, SNU-739, Liver, PIK3CA WT
  GI50: 25.9 µM
H322
  Category: Resistant (resistant (GI50>1.0 μM))
H322; Homo sapiens, NCI-H322, Lung, PIK3CA WT
  GI50: 8.23 µM
JIMT1
  Category: Resistant (resistant (GI50>1.0 μM))
JIMT1; Homo sapiens, JIMT-1, Breast, PIK3CA MUT
  GI50: 1.46 µM
OE19
  Category: Resistant (resistant (GI50>1.0 μM))
OE19; Homo sapiens, Esophagus, PIK3CA WT
  GI50: 5.13 µM
H358
  Category: Resistant (resistant (GI50>1.0 μM))
H358; Homo sapiens, NCI-H358, Lung, PIK3CA WT
  GI50: 4.64 µM
SNU16
  Category: Resistant (resistant (GI50>1.0 μM))
SNU16; Homo sapiens, SNU-16, Stomach, PIK3CA WT
  GI50: 16.8 µM
1A6
  Category: Resistant (resistant (GI50>1.0 μM))
1A6; Homo sapiens, Bladder, PIK3CA WT
  GI50: 30 µM
RS411
  Category: Sensitive (sensitive (GI50<=1.0 μM))
RS411; Homo sapiens, RS4-11, Blood/lymph, PIK3CA WT
  GI50: 0.0903 µM
MDAMB436
  Category: Resistant (resistant (GI50>1.0 μM))
MDAMB436; Homo sapiens, MDA-MB-436, Breast, PIK3CA WT
  GI50: 30 µM
SKBR3
  Category: Resistant (resistant (GI50>1.0 μM))
SKBR3; Homo sapiens, SK-BR-3, Breast, PIK3CA WT
  GI50: 1.59 µM
